The values below are quoted from earlier work in patent US20210308030A1, “SYSTEM, METHODS AND KITS FOR DIAGNOSIS AND TREATMENT OF FEMALE PATTERN HAIR LOSS” (Follea International, priority 2020, published 2021).

Data set [1] relates to FPHL patients. The settings on record: both 2% and 5% minoxidil.

Structures are written as SMILES.

Regarding `O=c1c(-c2ccc(O)cc2)coc2cc(O)ccc12` [daidzein], the water solubility entry is “poor”.

With `O=c1c(-c2ccc(O)cc2)coc2cc(O)cc(O)c12` [genistein], the water solubility entry is listed as “poor”.

As for `Nc1cc(N2CCCCC2)nc(N)[n+]1[O-]` [minoxidil], the “risk for adverse events” value in data set [1] is “low”.
